# Results from publication PMC4138991, “Building a Better Dynasore: The Dyngo Compounds Potently Inhibit Dynamin and Endocytosis” (Traffic (Copenhagen, Denmark), 2013).
# “Also recorded” adds a separate entry of the source. Read-outs that look alike come from different tables or passages of the source.
# Experiments:
# [1] = system: dynamin I SAI activity (rings); experiment: Self-assembly-induced (SAI) dynamin GTPase activity; format: biochemical, sheep; conditions: presence of Tween, 500 nM dynamin
# Procedure: (§1) The Malachite Green colorimetric GTPase assay was as described 10. Dynamin I activity was measured in its SAI activity state or was stimulated by three different methods. As each stimulus activates dynamin to different extents, each assay required different dynamin concentrations. First, maximal dynamin activity was stimulated by sonicated PS liposomes 10. Purified dynamin I (10–20 nM, diluted in: 6 mM Tris–HCl, 20 mM NaCl and 0.01% Tween 80, pH 7.4) was incubated in 96‐well plates in GTPase buffer (5 mM Tris–HCl, 10 mM NaCl, 2 mM Mg^2+, 0.05% Tween 80, pH 7.4, 1 µg/mL leupeptin and 0.1 mM PMSF) and GTP 0.3 mM in the presence of test compound for 30 min at 37°C in a final assay volume of 150 μL. Reactions were terminated with 10 μL of 0.5 M ethylenediaminetetraacetic acid (EDTA) pH 7.4 and Malachite Green solution (40 μL: 2% w/v ammonium molybdate tetrahydrate, 0.15% w/v malachite green and 4 M HCl) was added for 5 min. Second, dynamin (20 nM) was stimulated by 10 µg/mL of taxol‐stabilized preformed bovine brain microtubules (Cytoskeleton, Inc) using the same protocol. […] Finally, dynamin (500 nM) SAI activity was measured using high concentrations of dynamin, which promote its cooperative self‐assembly into rings (but not helices) 26. […] After the Vmax and Km values were determined, the data were transformed using the Lineweaver–Burke equation, 1/v = 1/Vmax + (Km/Vmax)(1/[S]).
# Calyx of Held = experiment: Membrane capacitance measurements at the Calyx of Held in brain slices; format: cell-based, mice; conditions: for SVE (decay of membrane capacitance): direct application by puffing pipette: 300 μM 4a, 800 μM dynasore
# [2] = biological target: native sheep brain dynamin I (Ovis aries, UniProt A0ACI6PDC7); experiment: PS liposome-stimulated (helical) dynamin I GTPase assay (Malachite Green); format: biochemical; conditions: GTP 50–250 μM, 4a 0.5–6 μM, 17 nM dynamin I, Lineweaver–Burke
# Text: (§2) Recombinant dynamin I was used only for the data in Table 2. The dynamin antibodies were from: Dynamin I—in‐house YF2 antibodies, raised in rabbits against two different synthetic peptides: dynamin I 629‐647 ([…]) and dynamin I 765–778 ([…]), used at 1/2000 dilution, as previously described 53; Dynamin II—Santa Cruz (C‐18, sc‐6400, used at 1/1000) and Dynamin III—Santa Cruz (P‐13, sc‐69472, used at 1/500 dilution).
# The Malachite Green colorimetric GTPase assay was as described 10. Dynamin I activity was measured in its SAI activity state or was stimulated by three different methods. As each stimulus activates dynamin to different extents, each assay required different dynamin concentrations. First, maximal dynamin activity was stimulated by sonicated PS liposomes 10. […] Finally, dynamin (500 nM) SAI activity was measured using high concentrations of dynamin, which promote its cooperative self‐assembly into rings (but not helices) 26. […] After the Vmax and Km values were determined, the data were transformed using the Lineweaver–Burke equation, 1/v = 1/Vmax + (Km/Vmax)(1/[S]).
# [3] = biological target: T1, recombinant rat dynamin II (Rattus norvegicus, UniProt P39052); experiment: Dynamin II GTPase assay (PS-stimulated); format: biochemical
# T1 sequence (P39052 1-870): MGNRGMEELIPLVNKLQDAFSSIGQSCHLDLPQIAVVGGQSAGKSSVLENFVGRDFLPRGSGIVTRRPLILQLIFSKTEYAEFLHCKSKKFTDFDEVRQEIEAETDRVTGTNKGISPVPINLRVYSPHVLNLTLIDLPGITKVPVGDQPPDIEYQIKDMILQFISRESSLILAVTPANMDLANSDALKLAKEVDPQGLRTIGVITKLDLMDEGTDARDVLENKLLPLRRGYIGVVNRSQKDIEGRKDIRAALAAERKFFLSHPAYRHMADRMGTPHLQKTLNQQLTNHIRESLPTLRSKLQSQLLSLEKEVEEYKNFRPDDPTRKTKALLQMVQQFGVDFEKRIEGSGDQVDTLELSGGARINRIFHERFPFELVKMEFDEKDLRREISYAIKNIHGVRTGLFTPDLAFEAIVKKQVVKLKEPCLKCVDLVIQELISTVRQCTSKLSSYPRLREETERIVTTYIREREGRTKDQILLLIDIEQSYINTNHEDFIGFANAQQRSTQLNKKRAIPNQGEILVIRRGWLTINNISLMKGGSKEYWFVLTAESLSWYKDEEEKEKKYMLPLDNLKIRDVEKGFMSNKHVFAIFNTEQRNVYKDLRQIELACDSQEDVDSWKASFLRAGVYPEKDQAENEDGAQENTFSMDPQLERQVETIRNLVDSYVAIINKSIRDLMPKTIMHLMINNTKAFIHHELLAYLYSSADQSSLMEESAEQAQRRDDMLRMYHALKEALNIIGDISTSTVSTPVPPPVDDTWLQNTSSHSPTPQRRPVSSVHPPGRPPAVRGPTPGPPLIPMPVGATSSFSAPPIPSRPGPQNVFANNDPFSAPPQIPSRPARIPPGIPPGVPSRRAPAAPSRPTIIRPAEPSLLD
# Text: as §2
# Assay conditions were based on the dynamin I assay but contained modifications. Recombinant dynamin II was used at 50 nM, stimulated by 10 µg/mL PS. The GTPase reaction was allowed to occur for 90 min at 37°C before termination.
# [4] = biological target: grb2-stimulated dynamin I (from brain) (Ovis aries, UniProt A0ACI6PDC7); experiment: grb2-stimulated (ring) dynamin I GTPase assay; format: biochemical, sheep
# Procedure: as §1
# [5] = biological target: microtubule-stimulated dynamin I (Ovis aries, UniProt A0ACI6PDC7); experiment: Microtubule-stimulated (helical) dynamin I GTPase assay; format: biochemical, sheep; conditions: presence of Tween-80
# Procedure: as §1
# Sequence of grb2-stimulated dynamin I (from brain) (A0ACI6PDC7 entry or part of it): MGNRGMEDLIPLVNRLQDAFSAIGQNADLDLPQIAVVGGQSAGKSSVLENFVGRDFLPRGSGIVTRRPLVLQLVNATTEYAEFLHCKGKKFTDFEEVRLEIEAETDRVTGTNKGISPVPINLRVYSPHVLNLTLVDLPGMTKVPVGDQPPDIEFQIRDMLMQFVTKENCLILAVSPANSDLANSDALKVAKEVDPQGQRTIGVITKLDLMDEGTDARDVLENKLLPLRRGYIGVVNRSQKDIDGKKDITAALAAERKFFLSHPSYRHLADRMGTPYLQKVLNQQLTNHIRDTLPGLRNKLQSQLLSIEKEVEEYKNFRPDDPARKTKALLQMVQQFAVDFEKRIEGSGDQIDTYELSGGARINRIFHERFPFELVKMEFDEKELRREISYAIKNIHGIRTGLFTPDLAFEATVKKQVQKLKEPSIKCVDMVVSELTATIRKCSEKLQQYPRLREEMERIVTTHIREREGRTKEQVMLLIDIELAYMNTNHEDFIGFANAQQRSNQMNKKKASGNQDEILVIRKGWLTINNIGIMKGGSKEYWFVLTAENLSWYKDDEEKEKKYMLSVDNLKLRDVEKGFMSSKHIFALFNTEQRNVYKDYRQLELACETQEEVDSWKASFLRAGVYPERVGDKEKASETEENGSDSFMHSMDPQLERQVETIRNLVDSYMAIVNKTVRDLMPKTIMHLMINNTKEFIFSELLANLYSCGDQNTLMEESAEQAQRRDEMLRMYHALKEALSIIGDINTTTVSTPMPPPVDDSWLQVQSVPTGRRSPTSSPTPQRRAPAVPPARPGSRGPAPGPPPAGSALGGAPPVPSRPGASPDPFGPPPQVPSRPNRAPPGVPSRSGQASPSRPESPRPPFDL
# Sequence of microtubule-stimulated dynamin I (A0ACI6PDC7 entry or part of it): as above
# Sequence of native sheep brain dynamin I (A0ACI6PDC7 entry or part of it): as above
SMILES,inhibition of SAI (self-assembly) activity [1],exocytosis (capacitance jump) (Calyx of Held; 300 μM 4a in puffing pipette),SVE (decay of membrane capacitance) (Calyx of Held),kinetics of inhibition with respect to GTP [2],"IC50 ([3]; Absence of Tween, DynII 50 nM, no unit in table, read-out: IC50 DynII (rec)) [µM]","IC50 ([3]; Presence of Tween, DynII 50 nM, no unit in table, read-out: IC50 DynII (rec)) [µM]",block of grb2-SH3 stimulated ring dynamin activity ([4]; presence of Tween-80),fold reduced activity against grb2-stimulated ring dynamin versus PS-stimulated helical dynamin ([4]; without Tween-80),block of microtubule-stimulated dynamin activity [5],"IC50 ([3]; detergent removed from the assay, n = 2, read-out: IC50 full-length helical dynamin II) [µM]","effect on dynamin II ([3]; standard assay with Tween-80, up to 1.5 mM)"
"O=C(N/N=C/c1cc(O)c(O)cc1O)c1cc2ccccc2cc1O [4a, (E)-3-Hydroxy-N'-(2,4,5-trihydroxybenzylidene) -2-naphthohydrazide]",not at all inhibited; also recorded: without effect,did not acutely affect exocytosis,complete blockade of SVE,non‐competitive inhibitor,2.3 ± 0.2,92.3 ± 10.9,,,,,
"O=C(N/N=C/c1ccc(O)c(O)c1)c1cc2ccccc2cc1O [Dynasore, (E)-N'-(3,4-Dihydroxybenzylidene)-3-hydroxy-2-naphthohydrazide]",did not block,,inhibits SVE,,,,did not block,threefold less potent,did not block,18.1 ± 0.2,no effect
